Assay results from patent US20120214822A1 (ASTRAZENECA AB, priority 2007, published 2012).

Target: human active recombinant p38α-6His tagged (Homo sapiens, UniProt Q16539)
Experiment: P38 Alpha Enzyme Assay (AlphaScreen, biotinylated-ATF2 substrate);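 also: 0.5 nM final p38α, reaction started with ATP and run 45 min at 37 °C, phospho-ATF2 read by antibody-based AlphaScreen, background wells quenched with EDTA before ATP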
Type: biochemical
Conditions: p38 alpha enzyme inhibition; means of replicate determinations; 4 h pre-incubation at 37° C.; SD of assay 0.2-0.3 log units

Sequence of human active recombinant p38α-6His tagged (Q16539 whole entry): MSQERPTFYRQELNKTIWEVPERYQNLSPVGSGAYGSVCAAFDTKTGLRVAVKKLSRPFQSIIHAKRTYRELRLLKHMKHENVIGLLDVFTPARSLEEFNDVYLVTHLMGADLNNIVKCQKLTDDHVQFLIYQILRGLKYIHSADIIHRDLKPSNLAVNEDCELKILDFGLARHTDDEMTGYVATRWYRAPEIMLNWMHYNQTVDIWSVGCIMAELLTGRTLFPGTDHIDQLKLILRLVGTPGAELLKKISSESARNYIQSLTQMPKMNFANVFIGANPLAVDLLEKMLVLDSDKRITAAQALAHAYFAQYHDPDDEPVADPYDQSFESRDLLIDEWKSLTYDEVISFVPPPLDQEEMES

## Cc1ccc(C(=O)NC2CC2)cc1-n1ccnc(NC2(c3ccccc3OCCN3CCn4ccnc4C3)CC2)c1=O [Example 296, N-Cyclopropyl-3-{3-[(1-{2-[2-(5,6-dihydroimidazo[1,2-a]pyrazin-7(8H)-yl)ethoxy]phenyl}cyclopropyl)amino]-2-oxopyrazin-1(2H)-yl}-4-methylbenzamide]
  pIC50: 9.1

## Cc1cccc(C2CCCCN2c2nccn(-c3cc(C(=O)NC4CC4)ccc3C)c2=O)c1 (centres unmarked) [Example 94, N-Cyclopropyl-4-methyl-3-[3-[2-(3-methylphenyl)-1-pipendinyl]-2-oxo-1(2H)-pyrazinyl]-benzamide]
  pIC50: 7.5

## Cc1ccc(C(=O)NC2CC2)cc1-n1ccnc(N[C@@H](c2ccccc2)[C@@H](C)CNCC(C)(C)C)c1=O [Example 157, N-Cyclopropyl-3-[3-[[(1R,2S)-3-[(2,2-dimethylpropyl)amino]-2-methyl-1-phenylpropyl]amino]-2-oxo-1(2H)-pyrazinyl]-4-methyl-benzamide]
  pIC50: 9

## COC[C@H]1CCCN1C[C@@H](C)[C@@H](Nc1nccn(-c2cc(C(=O)NC3CC3)ccc2C)c1=O)c1ccccc1 [Example 148, N-Cyclopropyl-3-[3-[[(1R,2R)-3-[(2R)-2-(methoxymethyl)-1-pyrrolidinyl]-2-methyl-1-phenylpropyl]amino]-2-oxo-1(2H)-pyrazinyl]-4-methyl-benzamide]
  pIC50: 8.1

## Cc1ccc(C(=O)NC2CC2)cc1-n1ccnc(NCc2ccc(F)cc2)c1=O [Example 33, N-Cyclopropyl-3-[3-[[(4-fluorophenyl)methyl]amino]-2-oxo-1(2H)-pyrazinyl]-4-methyl-benzamide]
  pIC50: 7.5

## Cc1ccc(C(=O)NC2CC2)cc1-n1ccnc(NCc2cccc(C(F)(F)F)c2)c1=O [Example 93, N-Cyclopropyl-4-methyl-3-[2-oxo-3-[[[3-(trifluoromethyl)phenyl]methyl]amino]-1(2H)-pyrazinyl]-benzamide]
  pIC50: 6.9

## Cc1ccc(C(=O)NC2CC2)cc1-n1ccnc(NC(C)(C)c2ccccc2OCCNCCO)c1=O [Example 211, N-Cyclopropyl-3-[3-[[1-[2-[2-[(2-hydroxyethyl)amino]ethoxy]phenyl]-1-methylethyl]amino]-2-oxo-1(2H)-pyrazinyl]-4-methyl-benzamide]
  pIC50: 9.6

## Cc1ccc(C(=O)NC2CC2)cc1-n1ccnc(NCCCN(C)C)c1=O [Example 3, N-Cyclopropyl-3-[3-[[3-(dimethylamino)propyl]amino]-2-oxo-1(2H)-pyrazinyl]-4-methyl-benzamide]
  pIC50: 6.1

## Cc1ccc(C(=O)NC2CC2)cc1-n1cc(Br)nc(N2CCN(C)CC2c2ccccc2)c1=O (centres unmarked) [Example 120, 3-[5-bromo-3-(4-methyl-2-phenyl-1-piperazinyl)-2-oxo-1(2H)-pyrazinyl]-N-cyclopropyl-4-methyl-benzamide]
  pIC50: 6.4

## Cc1ccc(C(=O)NC2CC2)cc1-n1ccnc(N[C@@H](c2ccccc2)[C@@H](C)CN2CCC3(CC2)OCCO3)c1=O [Example 179, N-Cyclopropyl-3-[3-[[(1R,2S)-3-(1,4-dioxa-8-azaspiro[4.5]dec-8-yl)-2-methyl-1-sphenylpropyl]amino]-2-oxo-1(2H)-pyrazinyl]-4-methyl-benzamide]
  pIC50: 8.9

## Cc1ccc(C(=O)NC2CC2)cc1-n1ccnc(N[C@@H](c2ccccc2)[C@@H](C)CN2CCC[C@H]2C)c1=O [Example 184, N-Cyclopropyl-4-methyl-3-[3-[[(1R,2S)-2-methyl-3-[(2R)-2-methyl-1-pyrrolidinyl]-1-phenylpropyl]amino]-2-oxo-1(2H)-pyrazinyl]-benzamide]
  pIC50: 8.7

## Cc1ccc(C(=O)NC2CC2)cc1-n1ccnc(N2CCNC(c3ccccc3)C2)c1=O (centres unmarked) [Example 53, N-Cyclopropyl-4-methyl-3-[2-oxo-3-(3-phenyl-1-piperazinyl)-1(2H)-pyrazinyl]-benzamide]
  pIC50: 7.4

## Cc1ccc(C(=O)NC2CC2)cc1-n1ccnc(N2CCCC(c3ccc(OCCN4CCCC4)cc3)C2)c1=O (centres unmarked) [Example 59, N-Cyclopropyl-4-methyl-3-[2-oxo-3-[3-[4-[2-(1-pyrrolidinyl)ethoxy]phenyl]-1-piperidinyl]-1(2H)-pyrazinyl]-benzamide]
  pIC50: 7.2

## Cc1ccc(C(=O)NC2CC2)cc1-n1ccnc(N[C@@H](c2ccccc2)[C@@H](C)CN2CCC3(CC2)CNC3)c1=O [Example 188, N-Cyclopropyl-3-[3-[[(1R,2S)-3-(2,7-diazaspiro[3.5]non-7-yl)-2-methyl-1-phenylpropyl]amino]-2-oxo-1(2H)-pyrazinyl]-4-methyl-benzamide]
  pIC50: 9.2

## Cc1ccc(C(=O)NC2CC2)cc1-n1ccnc(NCc2cnc3ccccc3c2)c1=O [Example 28, N-Cyclopropyl-4-methyl-3-[2-oxo-3-[(3-quinolinylmethyl)amino]-1(2H)-pyrazinyl]-benzamide]
  pIC50: 6.2

## Cc1ccc(C(=O)NC2CC2)cc1-n1ccnc(NC2(c3ccccc3OCCNCCF)CC2)c1=O [Example 245, N-Cyclopropyl-3-[3-[[1-[2-[2-[(2-fluoroethyl)amino]ethoxy]phenyl]cyclopropyl]amino]-2-oxo-1(2H)-pyrazinyl]-4-methyl-benzamide]
  pIC50: 9.5

## Cc1ccc(C(=O)NC2CC2)cc1-n1ccnc(NCc2ccc(C(C)(C)C)cc2)c1=O [Example 37, N-Cyclopropyl-3-[3-[[[4-(1,1-dimethylethyl)phenyl]methyl]amino]-2-oxo-1(2H)-pyrazinyl]-4-methyl-benzamide]
  pIC50: 6.1

## Cc1ccc(C(=O)NC2CC2)cc1-n1ccnc(N[C@@H](c2ccccc2)[C@@H](C)CN2CCC(N(C)C)CC2)c1=O [Example 176, N-Cyclopropyl-3-[3-[[(1R,2S)-3-[4-(dimethylamino)-1-piperidinyl]-2-methyl-1-phenylpropyl]amino]-2-oxo-1(2H)-pyrazinyl]-4-methyl-benzamide]
  pIC50: 8.7

## Cc1ccc(C(=O)NC2CC2)cc1-n1ccnc(NCc2cccc(Cl)c2)c1=O [Example 130, 3-[3-[[(3-Chlorophenyl)methyl]amino]-2-oxo-1(2H)-pyrazinyl]-N-cyclopropyl-4-methyl-benzamide]
  pIC50: 8.2

## Cc1c(F)cc(C(=O)NC2CC2)cc1-n1ccnc(NC(C)(C)c2ccccc2SCCN)c1=O [Example 321, 3-{3-[(1-{2-[(2-Aminoethyl)sulfanyl]phenyl}-1-methylethyl)amino]-2-oxopyrazin-1(2H)-yl}-N-cyclopropyl-5-fluoro-4-methylbenzamide]
  pIC50: 9.7

## Cc1ccc(C(=O)NC2CC2)cc1-n1ccnc(NC[C@H](O)c2ccccc2)c1=O [Example 55, N-Cyclopropyl-3-[3-[[(2R)-2-hydroxy-2-phenylethyl]amino]-2-oxo-1(2H)-pyrazinyl]-4-methyl-benzamide]
  pIC50: 6.5

## Cc1ccc(C(=O)NC2CC2)cc1-n1ccnc(N2CCCC(c3ccccc3)C2)c1=O (centres unmarked) [Example 60, N-Cyclopropyl-4-methyl-3-[2-oxo-3-(3-phenyl-1-piperidinyl)-1(2H)-pyrazinyl]-benzamide]
  pIC50: 7.3

## CNCCOc1ccccc1C(C)(C)Nc1nccn(-c2cc(C(=O)NCC(C)C)ccc2C)c1=O [Example 226, 4-Methyl-3-[3-[[1-methyl-1-[2-[2-(methylamino)ethoxy]phenyl]ethyl]amino]-2-oxo-1(2H)-pyrazinyl]-N-(2-methylpropyl)-benzamide]
  pIC50: 6.6

## Cc1ccc(C(=O)NC2CC2)cc1-n1ccnc(NC2(c3ccccc3OCCN3CCCC3)CC2)c1=O [Example 238, N-Cyclopropyl-4-methyl-3-[2-oxo-3-[[1-[2-[2-(1-pyrrolidinyl)ethoxy]phenyl]cyclopropyl]amino]-1(2H)-pyrazinyl]-benzamide]
  pIC50: 9.7

## CCNCCOc1ccccc1C(C)(C)Nc1nccn(-c2cc(C(=O)NC3CC3)ccc2CC)c1=O [Example 290, N-Cyclopropyl-4-ethyl-3-{3-[(1-{2-[2-(ethylamino)ethoxy]phenyl}-1-methylethyl)amino]-2-oxopyrazin-1(2H)-yl}benzamide]
  pIC50: 8.5

## Cc1ccc(C(=O)NC2CC2)cc1-n1cc(Cl)nc(NCCCN(C)C)c1=O [Example 108, 3-[5-Chloro-3-[[3-(dimethylamino)propyl]amino]-2-oxo-1(2H)-pyrazinyl]-N-cyclopropyl-4-methyl-benzamide]
  pIC50: 6.3

## CNCCCCOc1ccccc1C(C)(C)Nc1nccn(-c2cc(C(=O)NC3CC3)ccc2C)c1=O [Example 204, N-Cyclopropyl-4-methyl-3-[3-[[1-methyl-1-[2-[4-(methylamino)butoxy]phenyl]ethyl]amino]-2-oxo-1(2H)-pyrazinyl]-benzamide]
  pIC50: 9.8

## Cc1ccc(C(=O)NC2CC2)cc1-n1ccnc(NC2(c3ccccc3OCCN(C)C)CC2)c1=O [Example 237, N-Cyclopropyl-3-[3-[[1-[2-[2-(dimethylamino)ethoxy]phenyl]cyclopropyl]amino]-2-oxo-1(2H)-pyrazinyl]-4-methyl-benzamide]
  pIC50: 9.9

## Cc1ccc(C(=O)NC2CC2)cc1-n1ccnc(NC2(c3ccccc3OCCN3CCC(F)(F)C3)CC2)c1=O [Example 244, N-Cyclopropyl-3-[3-[[1-[2-[2-(3,3-difluoro-1-pyrrolidinyl)ethoxy]phenyl]cyclopropyl]amino]-2-oxo-1(2H)-pyrazinyl]-4-methyl-benzamide]
  pIC50: 9.2

## Cc1ccc(C(=O)NC2CC2)cc1-n1ccnc(NC(C)(C)c2ccccc2OC(C)CN2CCN(C)CC2)c1=O (centres unmarked) [Example 209, N-Cyclopropyl-4-methyl-3-[3-[[1-methyl-1-[2-[1-methyl-2-(4-methyl-1-piperazinyl)ethoxy]phenyl]ethyl]amino]-2-oxo-1(2H)-pyrazinyl]-benzamide]
  pIC50: 8.9

## Cc1ccc(C(=O)NC2CC2)cc1-n1ccnc(NC2Cc3ccccc3C2)c1=O [Example 64, N-Cyclopropyl-3-[3-[(2,3-dihydro-1H-inden-2-yl)amino]-2-oxo-1(2H)-pyrazinyl]-4-methyl-benzamide]
  pIC50: 6.8

## Cc1ccc(C(=O)NC2CC2)cc1-n1ccnc(N2CCC(c3ccccc3)C2)c1=O (centres unmarked) [Example 54, N-Cyclopropyl-4-methyl-3-[2-oxo-3-(3-phenyl-1-pyrrolidinyl)-1(2H)-pyrazinyl]-benzamide]
  pIC50: 6.5
